{
  "source": "ChEMBL document CHEMBL5579851",
  "about": "“Synthesis and antifungal evaluation of novel triazole derivatives bearing a pyrazole-methoxyl moiety” (Eur J Med Chem, 2024)",
  "key": {"Saccharomyces cerevisiae [1]": {"test_system": "Saccharomyces cerevisiae", "assay": "Antifungal activity against recombinant Saccharomyces cerevisiae Y2513 overexpressing ScErg11 Y140H mutant assessed as inhibition of fungal growth incubated for 48 hrs by CLSI based broth microdilution assay", "type": "functional"}, "[2]": {"target": "T1, Lanosterol 14-alpha demethylase (Candida albicans (strain SC5314 / ATCC MYA-2876) (Yeast), UniProt P10613)", "T1 sequence (P10613 whole entry)": "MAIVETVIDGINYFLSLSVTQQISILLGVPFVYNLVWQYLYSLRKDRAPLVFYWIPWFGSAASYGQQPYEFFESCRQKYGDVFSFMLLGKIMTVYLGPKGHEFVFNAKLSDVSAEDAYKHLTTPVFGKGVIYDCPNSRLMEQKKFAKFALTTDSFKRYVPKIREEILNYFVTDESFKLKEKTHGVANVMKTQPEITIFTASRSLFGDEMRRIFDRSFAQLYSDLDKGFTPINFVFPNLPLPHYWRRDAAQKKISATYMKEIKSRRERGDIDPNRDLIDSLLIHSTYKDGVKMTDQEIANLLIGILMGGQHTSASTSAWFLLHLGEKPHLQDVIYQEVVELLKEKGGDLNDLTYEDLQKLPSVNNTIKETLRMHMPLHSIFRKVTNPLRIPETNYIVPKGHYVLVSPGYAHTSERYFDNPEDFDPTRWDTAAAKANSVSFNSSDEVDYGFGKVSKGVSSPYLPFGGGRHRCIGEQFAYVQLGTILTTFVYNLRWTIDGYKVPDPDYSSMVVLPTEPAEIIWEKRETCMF", "assay": "Inhibition of CYP51 in Candida albicans SC5314 assessed as lanosterol level at 0.0625 ug/ml after 8 hrs by GC-MS analysis (reference value: 5.9 %)", "parameters": "scale not given: the % may be the effect or the level left", "conditions": "at 0.0625 µg/mL"}, "[3]": {"target": "T1, Lanosterol 14-alpha demethylase", "assay": "Inhibition of CYP51 in Candida albicans SC5314 assessed as ergosterol level at 0.0625 ug/ml after 8 hrs by GC-MS analysis (reference value: 86.2 %)", "parameters": "scale not given: the % may be the effect or the level left", "conditions": "at 0.0625 µg/mL"}, "Candida tropicalis [4]": {"test_system": "Candida tropicalis", "assay": "Antifungal activity against Candida tropicalis 8915 assessed as inhibition of fungal growth incubated for 48 hrs by CLSI based broth microdilution assay", "type": "functional"}, "Saccharomyces cerevisiae [5]": {"test_system": "Saccharomyces cerevisiae", "assay": "Antifungal activity against recombinant Saccharomyces cerevisiae Y2766 overexpressing CauCdr1 assessed as inhibition of fungal growth incubated for 48 hrs by CLSI based broth microdilution assay", "type": "functional"}, "Cryptococcus neoformans": {"test_system": "Cryptococcus neoformans", "assay": "Antifungal activity against Cryptococcus neoformans 32609 assessed as inhibition of fungal growth at 0.125 ug/ml measured up to 48 hrs by TECAN plate reader analysis", "type": "functional, organism-based", "conditions": "dose 0.125 µg/ml"}, "Saccharomyces cerevisiae [6]": {"test_system": "Saccharomyces cerevisiae", "assay": "Antifungal activity against recombinant Saccharomyces cerevisiae Y2769 overexpressing CauErg11 K143R mutant assessed as inhibition of fungal growth incubated for 48 hrs by CLSI based broth microdilution assay", "type": "functional"}, "Candida tropicalis [7]": {"test_system": "Candida tropicalis", "assay": "Potency index, ratio of fluconazole MIC to test compound MIC for antifungal activity against Candida tropicalis 8915 assessed as inhibition of fungal growth incubated for 48 hrs by CLSI based broth microdilution assay", "type": "functional"}, "[Candida] auris [8]": {"test_system": "[Candida] auris", "assay": "Antifungal activity against fluconazole-resistant Candida auris 918 assessed as inhibition of fungal growth incubated for 48 hrs by CLSI based broth microdilution assay", "type": "functional", "conditions": "Candidozyma auris"}, "Saccharomyces cerevisiae [9]": {"test_system": "Saccharomyces cerevisiae", "assay": "Antifungal activity against recombinant Saccharomyces cerevisiae Y2721 overexpressing CpErg11/CpCpr assessed as inhibition of fungal growth incubated for 48 hrs by CLSI based broth microdilution assay", "type": "functional"}, "Cell membrane": {"test_system": "Cell membrane", "assay": "Induction of membrane permeabilization in Candida albicans SC5314 assessed as increase in fluorescence at 0.0625 to 0.5 ug/ml incubated for 8 hrs by propidium iodide staining based fluorescence microscopic analysis", "conditions": "dose 0.0625-0.5 µg/ml"}, "Saccharomyces cerevisiae [10]": {"test_system": "Saccharomyces cerevisiae", "assay": "Antifungal activity against recombinant Saccharomyces cerevisiae Y2459 overexpressing CaErg11/CaCpr assessed as inhibition of fungal growth incubated for 48 hrs by CLSI based broth microdilution assay", "type": "functional"}, "[11]": {"target": "T1, Lanosterol 14-alpha demethylase", "assay": "Inhibition of CYP51 in Candida albicans SC5314 assessed as obtusifoliol level at 0.0625 ug/ml after 8 hrs by GC-MS analysis relative to control", "parameters": "scale not given: the % may be the effect or the level left", "conditions": "at 0.0625 µg/mL"}, "Candida tropicalis [12]": {"test_system": "Candida tropicalis", "assay": "Potency index, ratio of ravuconazole MIC to test compound MIC for antifungal activity against Candida tropicalis 8915 assessed as inhibition of fungal growth incubated for 48 hrs by CLSI based broth microdilution assay", "type": "functional"}, "Saccharomyces cerevisiae [13]": {"test_system": "Saccharomyces cerevisiae", "assay": "Antifungal activity against recombinant Saccharomyces cerevisiae Y2765 overexpressing CauMdr1 assessed as inhibition of fungal growth incubated for 48 hrs by CLSI based broth microdilution assay", "type": "functional"}, "Nakaseomyces glabratus [14]": {"test_system": "Nakaseomyces glabratus", "assay": "Antifungal activity against Candida glabrata 537 assessed as inhibition of fungal growth incubated for 48 hrs by CLSI based broth microdilution assay", "type": "functional"}, "[Candida] auris [15]": {"test_system": "[Candida] auris", "assay": "Antifungal activity against fluconazole-resistant Candida auris 919 assessed as inhibition of fungal growth incubated for 48 hrs by CLSI based broth microdilution assay", "type": "functional", "conditions": "Candidozyma auris"}, "Saccharomyces cerevisiae [16]": {"test_system": "Saccharomyces cerevisiae", "assay": "Antifungal activity against recombinant Saccharomyces cerevisiae Y525 overexpressing CaMdr1 assessed as inhibition of fungal growth incubated for 48 hrs by CLSI based broth microdilution assay", "type": "functional"}, "Saccharomyces cerevisiae [17]": {"test_system": "Saccharomyces cerevisiae", "assay": "Antifungal activity against recombinant Saccharomyces cerevisiae Y2301 overexpressing ScErg11 Y140F mutant assessed as inhibition of fungal growth incubated for 48 hrs by CLSI based broth microdilution assay", "type": "functional"}, "Candida parapsilosis [18]": {"test_system": "Candida parapsilosis", "assay": "Antifungal activity against Candida parapsilosis 22019 assessed as inhibition of fungal growth incubated for 48 hrs by CLSI based broth microdilution assay", "type": "functional", "conditions": "Lodderomyces parapsilosis"}, "[Candida] auris [19]": {"test_system": "[Candida] auris", "assay": "Antifungal activity against fluconazole-resistant Candida auris 891 assessed as inhibition of fungal growth incubated for 48 hrs by CLSI based broth microdilution assay", "type": "functional", "conditions": "Candidozyma auris"}, "Candida albicans [20]": {"test_system": "Candida albicans", "assay": "Antifungal activity against fluconazole-resistant Candida albicans 901 assessed as inhibition of fungal growth incubated for 48 hrs by CLSI based broth microdilution assay", "type": "functional"}, "Saccharomyces cerevisiae [21]": {"test_system": "Saccharomyces cerevisiae", "assay": "Antifungal activity against recombinant Saccharomyces cerevisiae Y2411 overexpressing ScErg11 assessed as inhibition of fungal growth incubated for 48 hrs by CLSI based broth microdilution assay", "type": "functional"}, "[22]": {"target": "T1, Lanosterol 14-alpha demethylase", "assay": "Inhibition of CYP51 in Candida albicans SC5314 assessed as 14alpha-methylfecosterol level at 0.0625 ug/ml after 8 hrs by GC-MS analysis relative to control", "parameters": "scale not given: the % may be the effect or the level left", "conditions": "at 0.0625 µg/mL"}, "Saccharomyces cerevisiae [23]": {"test_system": "Saccharomyces cerevisiae", "assay": "Antifungal activity against recombinant Saccharomyces cerevisiae Y2716 overexpressing CpErg11 Y132F mutant/ CpCpr assessed as inhibition of fungal growth incubated for 48 hrs by CLSI based broth microdilution assay", "type": "functional"}, "Saccharomyces cerevisiae [24]": {"test_system": "Saccharomyces cerevisiae", "assay": "Antifungal activity against recombinant Saccharomyces cerevisiae Y2768 overexpressing CauErg11 T132F mutant assessed as inhibition of fungal growth incubated for 48 hrs by CLSI based broth microdilution assay", "type": "functional"}, "Saccharomyces cerevisiae [25]": {"test_system": "Saccharomyces cerevisiae", "assay": "Antifungal activity against recombinant Saccharomyces cerevisiae Y570 overexpressing CaCdr1 assessed as inhibition of fungal growth incubated for 48 hrs by CLSI based broth microdilution assay", "type": "functional"}, "[26]": {"target": "T1, Lanosterol 14-alpha demethylase", "assay": "Inhibition of CYP51 in Candida albicans SC5314 assessed as eburicol level at 0.0625 ug/ml after 8 hrs by GC-MS analysis relative to control", "parameters": "scale not given: the % may be the effect or the level left", "conditions": "at 0.0625 µg/mL"}, "Saccharomyces cerevisiae [27]": {"test_system": "Saccharomyces cerevisiae", "assay": "Antifungal activity against recombinant Saccharomyces cerevisiae Y2711 overexpressing CnErg11 assessed as inhibition of fungal growth incubated for 48 hrs by CLSI based broth microdilution assay", "type": "functional"}, "Nakaseomyces glabratus [28]": {"test_system": "Nakaseomyces glabratus", "assay": "Antifungal activity against Candida glabrata 537 assessed as inhibition of fungal growth at 2 ug/ml measured up to 48 hrs by TECAN plate reader analysis", "type": "functional, organism-based", "conditions": "dose 2.0 µg/ml"}, "Candida albicans [29]": {"test_system": "Candida albicans", "assay": "Antifungal activity against Candida albicans SC5314 assessed as inhibition of fungal growth incubated for 48 hrs by CLSI based broth microdilution assay", "type": "functional"}, "Candida parapsilosis [30]": {"test_system": "Candida parapsilosis", "assay": "Antifungal activity against Candida parapsilosis 22019 assessed as inhibition of fungal growth at 0.125 ug/ml measured up to 48 hrs by TECAN plate reader analysis", "type": "functional, organism-based", "conditions": "dose 0.125 µg/ml"}, "Candida albicans [31]": {"test_system": "Candida albicans", "assay": "Antifungal activity against fluconazole-resistant Candida albicans 904 assessed as inhibition of fungal growth incubated for 48 hrs by CLSI based broth microdilution assay", "type": "functional"}, "[32]": {"assay": "Cytotoxicity against HUVEC cells assessed as cell viability at 128 ug/ml incubated for 24 hrs by CCK-8 assay relative to control", "type": "toxicity, cell-based", "conditions": "human, at 128 µg/mL, read-out: Activity"}, "Saccharomyces cerevisiae [33]": {"test_system": "Saccharomyces cerevisiae", "assay": "Antifungal activity against recombinant Saccharomyces cerevisiae Y2374 overexpressing CgErg11 assessed as inhibition of fungal growth incubated for 48 hrs by CLSI based broth microdilution assay", "type": "functional"}},
  "note": "Activity calls are given as the source filed them. The rule behind the calls is not given here.",
  "data": [
    {"compound": "C[C@@H](OCc1ccn(Cc2ccc(Cl)cc2)n1)[C@](O)(Cn1cncn1)c1ccc(F)cc1F", "values": [
      {"measurement": "MIC", "setting": "Saccharomyces cerevisiae [1]", "value": 0.008, "unit": "µg/mL"},
      {"measurement": "Activity", "setting": "[2]", "value": "> 25", "unit": "%"},
      {"measurement": "Activity", "setting": "[3]", "value": 0, "unit": "%"},
      {"measurement": "MIC", "setting": "Candida tropicalis [4]", "value": 0.25, "unit": "µg/mL"},
      {"measurement": "MIC", "setting": "Saccharomyces cerevisiae [5]", "value": 2, "unit": "µg/mL"},
      {"measurement": "inhibition", "setting": "Cryptococcus neoformans", "value": "Active"},
      {"measurement": "MIC", "setting": "Saccharomyces cerevisiae [6]", "value": 0.008, "unit": "µg/mL"},
      {"measurement": "Ratio", "setting": "Candida tropicalis [7]", "value": 256},
      {"measurement": "MIC", "setting": "[Candida] auris [8]", "value": 8, "unit": "µg/mL"},
      {"measurement": "MIC", "setting": "Saccharomyces cerevisiae [9]", "value": 0.016, "unit": "µg/mL"},
      {"measurement": "Activity", "setting": "Cell membrane", "value": "Active"},
      {"measurement": "MIC", "setting": "Saccharomyces cerevisiae [10]", "value": 0.008, "unit": "µg/mL"},
      {"measurement": "Activity", "setting": "[11]", "value": "~ 20%"},
      {"measurement": "Ratio", "setting": "Candida tropicalis [12]", "value": 32},
      {"measurement": "MIC", "setting": "Saccharomyces cerevisiae [13]", "value": 0.063, "unit": "µg/mL"},
      {"measurement": "MIC", "setting": "Nakaseomyces glabratus [14]", "value": "≤ 0.125", "unit": "µg/mL"},
      {"measurement": "MIC", "setting": "[Candida] auris [15]", "value": 8, "unit": "µg/mL"},
      {"measurement": "MIC", "setting": "Saccharomyces cerevisiae [16]", "value": 0.125, "unit": "µg/mL"},
      {"measurement": "MIC", "setting": "Saccharomyces cerevisiae [17]", "value": 0.008, "unit": "µg/mL"},
      {"measurement": "MIC", "setting": "Candida parapsilosis [18]", "value": 0.25, "unit": "µg/mL"},
      {"measurement": "MIC", "setting": "[Candida] auris [19]", "value": 8, "unit": "µg/mL"},
      {"measurement": "MIC", "setting": "Candida albicans [20]", "value": 16, "unit": "µg/mL"},
      {"measurement": "MIC", "setting": "Saccharomyces cerevisiae [21]", "value": 0.008, "unit": "µg/mL"},
      {"measurement": "Activity", "setting": "[22]", "value": "~ 20%"},
      {"measurement": "MIC", "setting": "Saccharomyces cerevisiae [23]", "value": 0.016, "unit": "µg/mL"},
      {"measurement": "MIC", "setting": "Saccharomyces cerevisiae [24]", "value": 0.0313, "unit": "µg/mL"},
      {"measurement": "MIC", "setting": "Saccharomyces cerevisiae [25]", "value": 16, "unit": "µg/mL"},
      {"measurement": "Activity", "setting": "[26]", "value": "~ 20%"},
      {"measurement": "MIC", "setting": "Saccharomyces cerevisiae [27]", "value": 0.008, "unit": "µg/mL"},
      {"measurement": "inhibition", "setting": "Nakaseomyces glabratus [28]", "value": "inactive"},
      {"measurement": "MIC", "setting": "Candida albicans [29]", "value": "≤ 0.125", "unit": "µg/mL"},
      {"measurement": "inhibition", "setting": "Candida parapsilosis [30]", "value": "Active"},
      {"measurement": "MIC", "setting": "Candida albicans [31]", "value": 8, "unit": "µg/mL"},
      {"measurement": "viability at 24 h, 128 ug/ml", "setting": "[32]", "value": 64.5, "unit": "%"},
      {"measurement": "MIC", "setting": "Saccharomyces cerevisiae [33]", "value": 0.008, "unit": "µg/mL"}
    ]}
  ]
}
